Test results as given in ChEMBL document CHEMBL5465560, “Selectivity Literature for EUbOPEN Chemogenomic Library” (2024).
Blank lines part the entries; values can stand above or below the molecule they belong to.

Tests used:
[1] = molecular target: T1, Mitogen-activated protein kinase 15 (Homo sapiens) (UniProt Q8TD08); assay: Selectivity interaction (KinomeScan (DiscoverX)) EUB0001049a MAPK15; conditions: at 1 µM
T1 sequence (whole entry): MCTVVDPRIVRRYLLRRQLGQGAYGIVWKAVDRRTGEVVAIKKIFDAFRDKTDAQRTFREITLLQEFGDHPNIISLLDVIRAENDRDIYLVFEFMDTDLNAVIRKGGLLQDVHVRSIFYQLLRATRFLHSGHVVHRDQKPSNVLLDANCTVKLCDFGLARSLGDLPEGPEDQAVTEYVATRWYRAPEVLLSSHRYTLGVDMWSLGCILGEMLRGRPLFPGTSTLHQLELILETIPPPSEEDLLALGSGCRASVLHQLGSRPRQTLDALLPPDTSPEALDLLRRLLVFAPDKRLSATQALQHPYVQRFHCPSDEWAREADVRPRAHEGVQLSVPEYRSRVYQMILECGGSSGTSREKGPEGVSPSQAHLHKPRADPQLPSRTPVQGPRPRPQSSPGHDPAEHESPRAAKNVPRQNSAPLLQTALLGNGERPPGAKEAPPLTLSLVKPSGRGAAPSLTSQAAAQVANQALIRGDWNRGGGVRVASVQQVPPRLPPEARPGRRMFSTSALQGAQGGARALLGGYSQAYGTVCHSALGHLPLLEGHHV

[2] = molecular target: T2, Phosphatidylinositol 4,5-bisphosphate 3-kinase catalytic subunit delta isoform (Homo sapiens) (UniProt O00329); assay: Selectivity interaction (ActivX KiNativ screen (kinase selectivity in THP-1 cell lysates)) EUB0000639a PIK3CD; assay type: subcellular; conditions: lysate, at 0.04 µM
T2 sequence (whole entry): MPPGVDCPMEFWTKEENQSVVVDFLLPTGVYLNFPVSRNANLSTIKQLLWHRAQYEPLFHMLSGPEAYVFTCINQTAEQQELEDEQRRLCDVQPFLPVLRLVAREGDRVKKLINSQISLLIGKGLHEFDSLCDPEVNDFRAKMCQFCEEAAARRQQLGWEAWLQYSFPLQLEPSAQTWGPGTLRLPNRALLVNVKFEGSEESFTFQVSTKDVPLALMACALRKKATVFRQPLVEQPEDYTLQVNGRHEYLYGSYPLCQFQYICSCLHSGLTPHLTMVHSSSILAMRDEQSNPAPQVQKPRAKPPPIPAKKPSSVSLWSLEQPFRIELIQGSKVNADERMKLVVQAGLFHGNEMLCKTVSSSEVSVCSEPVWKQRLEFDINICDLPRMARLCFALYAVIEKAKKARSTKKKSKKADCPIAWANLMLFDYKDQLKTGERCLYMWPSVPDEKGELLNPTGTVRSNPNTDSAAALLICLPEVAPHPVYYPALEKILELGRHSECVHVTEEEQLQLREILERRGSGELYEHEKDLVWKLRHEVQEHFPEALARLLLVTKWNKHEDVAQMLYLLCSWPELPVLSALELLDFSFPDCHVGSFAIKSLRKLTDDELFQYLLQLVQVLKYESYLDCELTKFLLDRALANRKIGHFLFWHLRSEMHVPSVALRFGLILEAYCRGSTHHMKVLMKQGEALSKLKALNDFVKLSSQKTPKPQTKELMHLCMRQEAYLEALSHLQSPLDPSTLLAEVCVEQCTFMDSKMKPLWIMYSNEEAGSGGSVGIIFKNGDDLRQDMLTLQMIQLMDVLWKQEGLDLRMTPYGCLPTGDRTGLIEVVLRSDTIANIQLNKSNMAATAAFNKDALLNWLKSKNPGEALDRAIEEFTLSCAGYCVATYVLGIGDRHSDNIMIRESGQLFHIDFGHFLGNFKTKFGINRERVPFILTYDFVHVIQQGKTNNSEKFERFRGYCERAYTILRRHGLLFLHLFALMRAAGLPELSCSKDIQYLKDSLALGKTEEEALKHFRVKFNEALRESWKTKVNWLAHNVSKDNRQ

[3] = molecular target: Mitogen-activated protein kinase 8 (Homo sapiens, UniProt P45983); assay: Selectivity interaction (KinomeScan (DiscoverX)) EUB0000092b MAPK8; conditions: at 10 µM
[4] = molecular target: T3, Serine/threonine-protein kinase DCLK1 (Homo sapiens) (UniProt O15075); assay: Selectivity interaction (KinomeScan (DiscoverX)) EUB0000607a DCLK1; conditions: at 10 µM
T3 sequence (whole entry): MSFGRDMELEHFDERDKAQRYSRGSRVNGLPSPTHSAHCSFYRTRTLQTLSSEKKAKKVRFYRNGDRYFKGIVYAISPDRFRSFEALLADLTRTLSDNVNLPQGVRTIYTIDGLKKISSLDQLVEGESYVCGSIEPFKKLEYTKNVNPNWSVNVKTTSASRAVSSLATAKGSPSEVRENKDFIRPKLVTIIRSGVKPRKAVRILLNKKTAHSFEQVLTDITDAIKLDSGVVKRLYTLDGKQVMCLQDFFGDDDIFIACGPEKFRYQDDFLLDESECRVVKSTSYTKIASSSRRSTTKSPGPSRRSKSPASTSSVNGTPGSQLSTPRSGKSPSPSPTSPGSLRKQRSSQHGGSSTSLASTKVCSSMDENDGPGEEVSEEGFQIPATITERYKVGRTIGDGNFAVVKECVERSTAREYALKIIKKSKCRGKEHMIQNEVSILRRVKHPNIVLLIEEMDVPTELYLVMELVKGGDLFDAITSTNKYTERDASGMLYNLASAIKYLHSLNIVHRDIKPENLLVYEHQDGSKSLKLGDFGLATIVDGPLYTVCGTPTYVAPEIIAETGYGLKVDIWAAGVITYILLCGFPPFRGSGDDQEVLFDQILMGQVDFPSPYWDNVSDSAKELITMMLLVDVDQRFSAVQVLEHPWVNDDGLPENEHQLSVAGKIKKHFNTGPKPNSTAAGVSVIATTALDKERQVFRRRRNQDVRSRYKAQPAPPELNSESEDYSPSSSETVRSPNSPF

Chain of Mitogen-activated protein kinase 8 (P45983 whole entry): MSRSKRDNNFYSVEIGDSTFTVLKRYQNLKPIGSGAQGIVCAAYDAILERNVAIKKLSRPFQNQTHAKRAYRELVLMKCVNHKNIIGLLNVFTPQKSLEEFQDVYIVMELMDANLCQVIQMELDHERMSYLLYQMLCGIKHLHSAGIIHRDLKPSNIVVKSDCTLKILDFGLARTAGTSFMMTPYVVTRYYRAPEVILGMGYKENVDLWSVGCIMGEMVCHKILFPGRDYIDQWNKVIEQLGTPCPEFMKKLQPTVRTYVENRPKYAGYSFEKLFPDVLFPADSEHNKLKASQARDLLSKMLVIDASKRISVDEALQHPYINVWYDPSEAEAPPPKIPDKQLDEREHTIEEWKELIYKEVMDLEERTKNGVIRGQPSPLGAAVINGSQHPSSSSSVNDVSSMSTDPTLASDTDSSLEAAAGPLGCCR

Structure (SMILES): COc1cc(Nc2nc(C)cc(-c3cnn4nc(OC)ccc34)n2)cc(C(F)(F)F)c1
% of control [1]: 96%

% of inhibition [2]: 3.5%
Structure (SMILES): CC[C@@H]1[C@H](F)C(=O)N[C@@H]1COc1nccc2cc(C(N)=O)c(OC)cc12 [ZIMLOVISERTIB]

Structure (SMILES): CCC(=O)N1CCN(c2ccc(-n3c(=O)ccc4cnc5ccc(-c6cnc7ccccc7c6)cc5c43)cc2C(F)(F)F)CC1
% of control [3]: 22%

Structure (SMILES): CNC(=O)Nc1ccc(-c2nc(N3CC4CCC(C3)O4)c3cnn(C4CCC5(CC4)OCCO5)c3n2)cc1
% of control [4]: 100%
